Key:
[1] = system: Human Immunodeficiency Virus (HIV); test: Anti-HIV activity: development of virus antigen in MT-4 cell (fluorescent antibody technique); format: cell-based; settings: for Development of virus antigen (%): 4 days, DMSO only 80 to 90%
Method: (b) Anti-"Human Immunodeficiency Virus (HIV)" activity.
(§1) About 100,000 cells/ml of MT-4 cell was introduced into a tray having 24 holes. Further, 100 microliters of a solution containing a predetermined quantity of the compound of the present invention was added, and then it was cultured in a 5% (v/v) carbon dioxide gas incubator at 37° C. for 5 hours. Subsequently, 10^3 to 10^4 infection units of HIV was added and cultured for 4 days. Then, a part of the culture fluid was applied to a slide glass and immobilized with acetone, and development of virus antigen was examined by the fluorescent antibody technique.
A serum of an AIDS patient was used as the primary antibody of the fluorescent antibody technique, and FITC-labelled anti-human IgG was used as its secondary antibody.
The compound of the present invention was used in the form of a solution
in DMSO. In DMSO itself only, development of virus antigen was 80 to 90%.

[2] = system: Herpes Simplex virus type-II; test: Antiviral activity by CPE (cytopathic effect) of Herpes Simplex virus type-II on Vevo cell; format: cell-based; settings: read-out: Inhibition rate (%)
Method: (a) Its antiviral activity was measured by observing CPE (cytopathic effect) of Herpes Simplex virus type-II on the Vevo cell originated from the kidney of Cercopithecus aetiops.

mouse = test: Acute toxicity (LD50) on mouse; format: in vivo; settings: iv
Method: (§2) (3) The acute toxicity (LD50) of the compound of formula (1) on mouse was 200 mg/kg (iv) or above which is weaker than the toxicities of various known nucleic acid type antibiotics.

[3] = Acute toxicity (LD50) on mouse; format: in vivo; settings: in vivo, iv
Method: as §2

[4] = Solubilities into solvents; format: physicochemical
Source text: (8) Solubilities into solvents

MT-4 cell = test: Cytopathic effect on MT-4 cell without virus (microscopy); format: cell-based; settings: summary in words
Method: as §1, with “technique. Cytopathic effect of the compound of the invention on MT-4 cell was examined microscopically without adding virus.” for “technique.”

[5] = system: T Lymphocyte (spleen cell of BALB/C mouse); test: Inhibition of Blastogenesis Reaction of T Lymphocyte by Con A (3H-thymidine take-up); format: cell-based; settings: Con A 5 micrograms/liter, 37° C., 72 hours
Method: Inhibition of Blastogenesis Reaction of T Lymphocyte by Con A.
Spleen cell of BALB/C mouse was dividingly poured into a microplate so that the number of cells came to 2×10^5 /0.2 ml/well. To each of all the wells other than control group was added the compound of the present invention having varied concentration. Further, 5 […] of Con A was added to all the wells. Then, the cell suspensions were cultured at 37° C. for 72 hours in 5% carbon dioxide gas incubator. The blastogenesis reaction of lymphocyte was examined by adding 1μCi/well of ^3 H-thymidine 6 hours before the completion of the culture and measuring its take-up into cultured cells by means of liquid scintillation counter. If the take-up count at the time when only Con A was added was expressed by Adpm and the take-up count at the time when Con A and drug were added was expressed by Bdpm, (1 - Bdpm/Adpm)×100 could be regarded as the inhibitory rate of each drug on blastogenesis.

O=c1[nH]cnc2c1ncn2[C@@H]1O[C@H](CO)[C@H]1CO [compound of formula (1), 9-[(2'R,3'R,4'S)-3',4'-bis-(hydroxymethyl)-2'-oxetanyl]-hypoxanthine]
Development of virus antigen (%) ([1]; 1 μg/ml): 40% | Development of virus antigen (%) ([1]; 10 μg/ml): 10% | Development of virus antigen (%) ([1]; 100 μg/ml): 2% | growth-inhibitory action of HIV ([1]; summary in words): marked | inhibition at 31.3 µg/disc ([2]; 31.3 mcg/well): 8% | inhibition at 62.5 µg/disc ([2]; 62.5 mcg/well): 33% | inhibition at 125 µg/disc ([2]; 125 mcg/well): 75% | acute toxicity compared with various known nucleic acid type antibiotics (mouse): weaker | LD50 [3]: ≥ 200 mg/kg | Solubility ([4]; acetone): insoluble or only slightly soluble | Solubility ([4]; benzene): insoluble or only slightly soluble | Solubility ([4]; dimethyl sulfoxide): soluble | Solubility ([4]; ether): insoluble or only slightly soluble | Solubility ([4]; ethyl acetate): insoluble or only slightly soluble | Solubility ([4]; methanol): soluble | Solubility ([4]; propanol): insoluble or only slightly soluble | Solubility ([4]; water): soluble | cytopathic effect (summary) (MT-4 cell): small | IC50 [5]: 14.5 µg/mL

Source: US4845215A, “Purine derivative” (Nippon Kayaku Kabushiki Kaisha, priority 1987, dated 1989)
